Experimental data as given in US11655232B2 (Celgene Corporation, priority 2003, dated 2023).
≈ marks a conversion by molar mass, not a printed value. Where “and” joins values, the source holds several entries; their conditions need not be identical. Equal values may be shown once. Entries after “also recorded” stand apart in the source; their conditions may differ. Marks after values point to notes of the source that are not given here. One block for each molecule: values may come before it.

Columns and labels:
[1] = Temperature/relative humidity stress storage; format: physicochemical; settings: about 85 days; room temperature/0% RH and 40° C./93% RH
[2] = Moisture sorption/desorption; format: physicochemical
Experimental: Moisture sorption/desorption data were collected on a VTI SGA-100 moisture balance system. For sorption isotherms, a sorption range of 5 to 95% relative humidity (RH) and a desorption range of 95 to 5% RH in 10% RH increments was used for analysis. The sample was not dried prior to analysis. Equilibrium criteria used for analysis were less than 0.0100 weight percent change in 5 minutes with a maximum equilibration time of 3 hours if the weight criterion was not met. Data were not corrected for the initial moisture content of the samples.

[3] = Intrinsic dissolution (Woods apparatus); format: physicochemical; settings: for dissolution rates (estimated) / Final Form of undissolved solids after intrinsic dissolution (XRPD) / Intrinsic Dissolution #2 (rate): HCl buffer pH 1.8, 1% sodium lauryl sulfate; for Final Form of undissolved solids after intrinsic dissolution (XRPD) / Intrinsic Dissolution #1 (rate) / Intrinsic Dissolution #2 (rate): 37° C.; for Average Intrinsic Dissolution Rate: average of experiments #1 and #2; for Intrinsic Dissolution #1 (rate): experiment #1, 900 mL HCl buffer pH 1.8, 1% sodium lauryl sulfate; for Intrinsic Dissolution #1 (rate) / Intrinsic Dissolution #2 (rate): 50 rpm; for Intrinsic Dissolution #2 (rate): experiment #2
Experimental: Dissolution experiments were carried out in a VanKel VK6010-8 dissolution apparatus equipped with a VK650A heater/circulator. An intrinsic dissolution apparatus (Woods apparatus) was used. Samples were compressed at 1.5 metric tons (1000 psi) for 1 min using the Woods apparatus in a hydraulic press, giving a sample surface of 0.50 cm^2. […] The medium was degassed by vacuum filtration through a 0.22-μm nylon filter disk and maintained at 37° C. The apparatus was rotated at 50 rpm for each experiment. Aliquots were filtered immediately using 0.2-μm nylon syringe filters. In some cases, the undissolved solids were recovered and analyzed by X-ray powder diffraction (XRPD).
(§1) Diffracted radiation was detected by a NaI scintillation detector.

[4] = Interconversion slurry experiments
Experimental: Interconversion experiments were carried out by making slurries containing two forms in a saturated solvent. The slurries were agitated for approximately 7-20 days at ambient temperature. The insoluble solids were recovered by filtration and analyzed using XRPD.

[5] = Compression and grinding, form check by XRPD; format: physicochemical; settings: compressed into disks in Woods apparatus, 2 metric tons, ground gently
Experimental: as §1
Approximately 200 mg each of Forms A and B were compressed into disks in the Woods apparatus using 2 metric tons of pressure. The samples were subsequently scraped out, ground gently, and analyzed by XRPD. […] (See Table 7).

[6] = Equilibrium solubility in dissolution medium; settings: for Final Form of solids remaining from solubility experiment (XRPD) / Concentration: HCl buffer pH 1.8, 1% sodium lauryl sulfate; for Final Form of solids remaining from solubility experiment (XRPD): final time point
Experimental: A solid sample of 400-450 mg was stirred in 50 mL of dissolution medium (HCl buffer, pH 1.8, with 1% sodium lauryl sulfate) using a mechanical stir rod. Aliquots were filtered using 0.2-μm nylon syringe filters and immediately diluted 1 mL→50 mL, then 5 mL→25 mL with dissolution medium in Class A glassware, a final dilution factor of 250.
Dissolution and solubility samples solutions were analyzed by a Beckman DU 640 single-beam spectrophotometer. A 1.000-cm quartz cuvette and an analysis wavelength of 228.40 nm were utilized. The detector was zeroed with a cuvette filled with dissolution medium.
XRPD analyses were carried out on a Shimadzu XRD-6000 X-ray powder diffractometer using Cu Kα radiation. The instrument is equipped with a fine focus X-ray tube. The tube power and amperage were set at 40 kV and 40 mA, respectively. The divergence and scattering slits were set at 1° and the receiving slit was set at 0.15 mm. Diffracted radiation was detected by a NaI scintillation detector. A theta-two theta continuous scan at 3°/min (0.4 sec/0.02° step) from 2.5 to 40°2θ was used. A silicon standard was analyzed each day to check the instrument alignment. Samples were packed in an aluminum holder with silicon insert.

[7] = Desolvation by heating; format: physicochemical; settings: about 150° C. for about five minutes
[8] = from 5 to 95% relative humidity

- hygroscopicity (summary) [2]: weakly or not hygroscopic
- weight lost from start to finish ([2]; at 5% relative humidity after drying from 95% back down to 5%): about 0.003 % by weight
- Cumulative Amount Dissolved per Unit Area ([3]; Experiment #1, 5 min): 5.76 mg/cm2
- Cumulative Amount Dissolved per Unit Area ([3]; Experiment #1, 10 min): 7.73 mg/cm2
- Cumulative Amount Dissolved per Unit Area ([3]; Experiment #1, 20 min): 11.31 mg/cm2
- Cumulative Amount Dissolved per Unit Area ([3]; Experiment #1, 30 min): 15.59 mg/cm2
- Cumulative Amount Dissolved per Unit Area ([3]; Experiment #1, 45 min): 21.98 mg/cm2
- Cumulative Amount Dissolved per Unit Area ([3]; Experiment #1, 60 min): 27.11 mg/cm2
- Cumulative Amount Dissolved per Unit Area ([3]; Experiment #1, 90 min): 34.17 mg/cm2
- Cumulative Amount Dissolved per Unit Area ([3]; Experiment #2, 5 min): 4.50 mg/cm2
- Cumulative Amount Dissolved per Unit Area ([3]; Experiment #2, 10 min): 5.22 mg/cm2
- Cumulative Amount Dissolved per Unit Area ([3]; Experiment #2, 20 min): 7.54 mg/cm2
- Cumulative Amount Dissolved per Unit Area ([3]; Experiment #2, 30 min): 11.46 mg/cm2
- Cumulative Amount Dissolved per Unit Area ([3]; Experiment #2, 45 min): 15.01 mg/cm2
- Cumulative Amount Dissolved per Unit Area ([3]; Experiment #2, 60 min): 18.38 mg/cm2
- Cumulative Amount Dissolved per Unit Area ([3]; Experiment #2, 90 min): 24.38 mg/cm2
- Cumulative Amount Dissolved per Unit Area ([3]; Experiment #2, 120 min): 30.35 mg/cm2
- Cumulative Amount Dissolved per Unit Area ([3]; Experiment #2, 150 min): 35.26 mg/cm2
- dissolution rates (estimated) [3]: 0.35 mg/cm²/min
- Average Intrinsic Dissolution Rate [3]: 0.29^a mg per cm^2 per minute
- Intrinsic Dissolution #1 (rate) [3]: 0.35 mg per cm^2 per minute
- true intrinsic dissolution rate (believed) ([3]; judged from experiment #1, since #2 disk surface may have converted to Form E): ~0.35 mg per cm^2 per minute
- interconversion / stability in solvent system ([4]; acetone solvent system): can convert to Form C
- interconversion / stability in solvent system ([4]; anhydrous solvent systems): tends to be stable
- interconversion / stability in solvent system ([4]; aqueous solvent systems): can convert to Form B
- interconversion ([4]; water systems, in the presence of Form E): tends to convert to Form E
- Final Form after pressing (compression and grinding, XRPD) [5]: does not cause a form change
- Concentration ([6]; time point 7 min, 25° C.): 6000 µg/mL
- Concentration ([6]; time point 15 min, 25° C.): 6110 µg/mL
- Concentration ([6]; time point 30 min, 25° C.): 6200 µg/mL and 6160 µg/mL
- Concentration ([6]; time point 60 min, 25° C.): 6100 µg/mL
- Concentration ([6]; time point 90 min, 25° C.): 5460 µg/mL
- Concentration ([6]; time point 150 min, 25° C.): 4700 µg/mL and 4730 µg/mL
Structure (SMILES): Nc1cccc2c1CN(C1CCC(=O)NC1=O)C2=O (single isomer, unassigned) [Form A, 3-(4-amino-1-oxo-1,3 dihydro-isoindol-2-yl)-piperidine-2,6-dione]
- form after stress storage [1]: typically does not convert to a different form
- weight gain on moisture sorption [2, 8]: does not exhibit a significant weight gain
- Final Form of undissolved solids after intrinsic dissolution (XRPD) [3]: did not change; also recorded: does not indicate a form change
- Intrinsic Dissolution #2 (rate) [3]: 0.22 mg per cm^2 per minute and 0.22^a mg per cm^2 per minute
- thermodynamic stability among anhydrous polymorphs (summary) [4]: most thermodynamically stable anhydrous polymorph
- Final Form of solids remaining from solubility experiment (XRPD) [6]: unstable in the medium, converting to Form E

- form after stress storage [1]: does not convert to a different form
- Cumulative Amount Dissolved per Unit Area ([3]; Experiment #1, 5 min): 10.80^b mg/cm2
- Cumulative Amount Dissolved per Unit Area ([3]; Experiment #1, 10 min): 6.85 mg/cm2
- Cumulative Amount Dissolved per Unit Area ([3]; Experiment #1, 20 min): 10.25 mg/cm2
- Cumulative Amount Dissolved per Unit Area ([3]; Experiment #1, 30 min): 14.35 mg/cm2
- Cumulative Amount Dissolved per Unit Area ([3]; Experiment #1, 45 min): 20.57 mg/cm2
- Cumulative Amount Dissolved per Unit Area ([3]; Experiment #1, 60 min): 25.70 mg/cm2
- Cumulative Amount Dissolved per Unit Area ([3]; Experiment #1, 90 min): 34.34 mg/cm2
- Cumulative Amount Dissolved per Unit Area ([3]; Experiment #2, 5 min): 5.04 mg/cm2
- Cumulative Amount Dissolved per Unit Area ([3]; Experiment #2, 10 min): 6.12 mg/cm2
- Cumulative Amount Dissolved per Unit Area ([3]; Experiment #2, 20 min): 7.73 mg/cm2
- Cumulative Amount Dissolved per Unit Area ([3]; Experiment #2, 30 min): 12.72 mg/cm2
- Cumulative Amount Dissolved per Unit Area ([3]; Experiment #2, 45 min): 17.33 mg/cm2
- Cumulative Amount Dissolved per Unit Area ([3]; Experiment #2, 60 min): 21.93 mg/cm2
- Cumulative Amount Dissolved per Unit Area ([3]; Experiment #2, 90 min): 31.64 mg/cm2
- Cumulative Amount Dissolved per Unit Area ([3]; Experiment #2, 120 min): 41.31 mg/cm2
- Cumulative Amount Dissolved per Unit Area ([3]; Experiment #2, 150 min): 49.54 mg/cm2
- dissolution rates (estimated) [3]: 0.34 mg/cm²/min
- Final Form of undissolved solids after intrinsic dissolution (XRPD) [3]: did not change
- Average Intrinsic Dissolution Rate [3]: 0.34 mg per cm^2 per minute
- Intrinsic Dissolution #1 (rate) [3]: 0.35 mg per cm^2 per minute
- Intrinsic Dissolution #2 (rate) [3]: 0.32 mg per cm^2 per minute
- interconversion / stability in solvent system ([4]; THF solvent system): typically converts to Form A
- interconversion / stability in solvent system ([4]; acetone solvent system): typically converts to Form C
- interconversion / stability in solvent system ([4]; anhydrous solvent systems): converts to other forms
- interconversion ([4]; in the presence of water): can convert to Form E
- Final Form after pressing (compression and grinding, XRPD) [5]: does not cause a form change
- Final Form of solids remaining from solubility experiment (XRPD) [6]: Form B
- Solubility ([6]; HCl buffer, pH 1.8, with 1% sodium lauryl sulfate, 25° C., estimated): 5800 µg/mL (≈ 22.4 mM)
- Concentration stabilized ([6]; final three time points (180, 420, 650 min)): 5600 to 5700 µg/mL
- stability in water (suggested by remaining solids) ([6]; slurry in dissolution medium up to 650 min): good stability in water
- Concentration ([6]; time point 7 min, 25° C.): 1630 µg/mL
- Concentration ([6]; time point 15 min, 25° C.): 2140 µg/mL
- Concentration ([6]; time point 30 min, 25° C.): 2330 µg/mL
- Concentration ([6]; time point 60 min, 25° C.): 2940 µg/mL
- Concentration ([6]; time point 90 min, 25° C.): 3300 µg/mL and 3340 µg/mL
- Concentration ([6]; time point 180 min, 25° C.): 5670 µg/mL
- Concentration ([6]; time point 420 min, 25° C.): 5760 µg/mL
- Concentration ([6]; time point 650 min, 25° C.): 5610 µg/mL
Structure (SMILES): Nc1cccc2c1CN(C1CCC(=O)NC1=O)C2=O (single isomer, unassigned) [Form B, 3-(4-amino-1-oxo-1,3 dihydro-isoindol-2-yl)-piperidine-2,6-dione]
- weight gain on moisture sorption [2, 8]: does not exhibit a significant weight gain

- form after heating (desolvation) [7]: will typically convert to Form A
- hygroscopicity (summary) [2]: not hygroscopic below about 85% RH
- weight loss ([2]; at 95% relative humidity): about 6.03%
- interconversion / stability in solvent system ([4]; THF solvent system): typically converts to Form A
- interconversion / stability in solvent system ([4]; acetone solvent system): most stable form
- interconversion / stability in solvent system ([4]; aqueous solvent systems): typically converts to Form E
Structure (SMILES): Nc1cccc2c1CN(C1CCC(=O)NC1=O)C2=O (stereo not shown) [Form C, 3-(4-amino-1-oxo-1,3 dihydro-isoindol-2-yl)-piperidine-2,6-dione]
- weight gain on moisture sorption ([2]; from 5 to 85% relative humidity): does not exhibit a significant weight gain

- form after heating (desolvation) [7]: will typically convert to Form A
- hygroscopicity (summary) [2]: either weakly or not hygroscopic
- interconversion / stability in solvent system ([4]; THF solvent system): capable of converting to Form A
Structure (SMILES): Nc1cccc2c1CN(C1CCC(=O)NC1=O)C2=O (stereo not shown) [Form D, 3-(4-amino-1-oxo-1,3 dihydro-isoindol-2-yl)-piperidine-2,6-dione]
- weight gain on moisture sorption [2, 8]: does not exhibit a significant weight gain

- interconversion ([4]; slurried in water with either Forms A or B, about 14 days): can convert to Form E
Structure (SMILES): Nc1cccc2c1CN(C1CCC(=O)NC1=O)C2=O (stereo not shown) [Form H, 3-(4-amino-1-oxo-1,3 dihydro-isoindol-2-yl)-piperidine-2,6-dione]
